Source: patent US20220054494A1, “METHODS FOR TREATING BLADDER AND URETHRA DYSFUNCTION AND DISEASE” (University of Pittsburgh - Of the Commonwealth System of …, priority 2019, published 2022)
Entries after “also recorded” stand apart in the source; their conditions may differ.

Experiments:
[1] = system: purines in urine; test: Purines in urine by mass spectrometry; type: in vivo, rat; conditions: aged rats, oral 8-AG 5 mg/kg/day, 6 weeks
Method: Protocol 2: Purines in urine were measured by mass spectrometry using selected reaction monitoring. Urine samples were diluted 1 to 30 with water, and heavy isotope internal standards were added to each sample. Purines were separated by reversed-phase ultra-performance liquid chromatography (Waters UPLC BEH C18 column, 1.7 μm beads; 2.1×150 mm; Milford, Mass.) and quantified by selected reaction monitoring using a triple quadrupole mass spectrometer (TSQ Quantum-Ultra; THERMOFISHER SCIENTIFIC®, San Jose, Calif.) with a heated electrospray ionization source. The mobile phase was a linear gradient flow rate (300 μL/min) of 1% acetic acid in water (pH, 3; mobile phase A) and 100% methanol (mobile phase B) and was delivered with a Waters Acquity ultra-performance liquid chromatographic system. The gradient (A/B) settings were as follows: from 0 to 2 minutes, 99.6%/0.4%; from 2 to 3 minutes, to 98.0%/2.0%; from 3 to 4 minutes, to 85.0%/15.0%; and from 4 to 6.5 minutes, to 99.6%/0.4%. The instrument parameters were: sample tray temperature, 10° C.; column temperature, 50° C.; ion spray voltage, 4.0 kilovolts; ion transfer tube temperature, 350° C.; source vaporization temperature, 320° C.; Q2 CID gas, argon at 1.5 mTorr; sheath gas, nitrogen at 60 psi; auxillary gas, nitrogen at 35 psi; Q1/Q3 width, 0.7/0.7 units full-width half-maximum; scan width, 0.6 units; scan time, 0.01 seconds. […]
Purine Metabolome Measurement: Purines in urine were measured by mass spectrometry using selected reaction monitoring.(7,13) Urine samples were diluted 1 to 30 with water, and heavy isotope internal standards were added to each sample. Purines were separated by reversed-phase ultra-performance liquid chromatography (Waters UPLC BEH C18 column, 1.7 μm beads; 2.1×150 mm; Milford, Mass.) and quantified by selected reaction monitoring using a triple quadrupole mass spectrometer (TSQ Quantum-Ultra; THERMOFISHER SCIENTIFIC®, San Jose, Calif.) with a heated electrospray ionization source. […]

[2] = system: CYP-treated rats; test: Images of intact bladders in CYP cystitis model (inflammation and bleeding); type: in vivo, rat; conditions: CYP (75 mg/kg i.p.) female Sprague Dawley rats; oral 8-AG 5 mg/kg/day starting one week prior to CYP
Method: Animals: Female Sprague Dawley rats were employed in this example (Charles River; Wilmington, Mass.). Three groups of animals were included. Group 1 received an i.p. injection of saline and was used as a control; groups 2 and 3 received an i.p. injection of cyclophosphamide (CYP, SIGMA-ALDRICH®, St Louis, Mo., day 0, 3, 6, sacrifice day 8, 75 mg/kg, i.p.) with group 3 treated with oral 8-AG (5 mg/kg/day; starting one week prior to CYP). CYP induced bladder inflammation and is a well-established pre-clinical model for BPS/IC.

[3] = system: deoxycorticosterone/salt-induced hypertension; conditions: chronic oral treatment of rats; Jackson et al. 2016; cited from earlier work
[4] = system: hydroxyproline; test: Hydroxyproline in detrusor smooth muscle (indicator of fibrosis); type: in vivo, rat; conditions: aged rats; oral 8-AG 5 mg/kg/day, 6 weeks
[5] = target: Rac 1 (Homo sapiens, UniProt P63000); conditions: Jackson et al., J Am Heart Assoc 2018; cited from earlier work

Nc1nc2[nH]c(N)nc2c(=O)[nH]1 [8-AG, 8-Aminoguanine]
urinary hypoxanthine levels [1]: significantly reduced; also recorded: levels comparable to younger rats; also recorded: normalizes; also recorded: restored to younger levels | urinary guanosine levels ([1]; compared with young rats): similar; also recorded: recovered | urinary levels of 8-AG ([1]; undetectable in untreated aged rats): restored to younger levels | bladder inflammation and bleeding (images of intact bladders) [2]: nearly abolished | development of deoxycorticosterone/salt-induced hypertension [3]: attenuate | hydroxyproline in detrusor smooth muscle [4]: levels similar to the younger state; also recorded: restored these biomarkers to that of a younger state | Rac 1 inhibition (mechanism of reduced potassium excretion) [5]: inhibiting
